From PubChem BioAssay (NCI)
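Growth conditions: 96-well plates. Treatment: test compound, 48 hours, 5 concentrations. Analysis: linear interpolation between bracketing concentrations; unreached endpoints set to highest concentration. GI50 marks 50% less growth. At the TGI there is no net growth.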

Key:
Test in all cases: NCI tumour cell line growth inhibition, 48 h
786-0 renal = tested on: 786-0 renal
MDA-MB-435 = tested on: MDA-MB-435
K-562 leukemia = tested on: K-562 leukemia
TK-10 renal = tested on: TK-10 renal
SK-OV-3 ovarian = tested on: SK-OV-3 ovarian
SF-295 CNS = tested on: SF-295 CNS
MDA-MB-231 breast = tested on: MDA-MB-231 breast
ACHN renal = tested on: ACHN renal
HCC-2998 colon = tested on: HCC-2998 colon
DU-145 prostate = tested on: DU-145 prostate
MCF7 breast = tested on: MCF7 breast
HOP-62 NSCLC = tested on: HOP-62 NSCLC
A498 renal = tested on: A498 renal
CAKI-1 renal = tested on: CAKI-1 renal
HCT-15 colon = tested on: HCT-15 colon
PC-3 prostate = tested on: PC-3 prostate
OVCAR-3 ovarian = tested on: OVCAR-3 ovarian
NCI-H226 lung = tested on: NCI-H226 lung
HOP-92 NSCLC = tested on: HOP-92 NSCLC
RXF 393 renal = tested on: RXF 393 renal
M14 melanoma = tested on: M14 melanoma
HCT-116 colon = tested on: HCT-116 colon
LOX IMVI melanoma = tested on: LOX IMVI melanoma
OVCAR-4 ovarian = tested on: OVCAR-4 ovarian
HT29 colon = tested on: HT29 colon
EKVX NSCLC = tested on: EKVX NSCLC
SNB-19 CNS = tested on: SNB-19 CNS
NCI-H460 lung = tested on: NCI-H460 lung
CCRF-CEM leukemia = tested on: CCRF-CEM leukemia
SK-MEL-2 melanoma = tested on: SK-MEL-2 melanoma
SF-539 CNS = tested on: SF-539 CNS
SW-620 colon = tested on: SW-620 colon
SK-MEL-28 melanoma = tested on: SK-MEL-28 melanoma
MALME-3M melanoma = tested on: MALME-3M melanoma
HL-60(TB) leukemia = tested on: HL-60(TB) leukemia
UACC-257 melanoma = tested on: UACC-257 melanoma
UACC-62 melanoma = tested on: UACC-62 melanoma
NCI-H23 lung = tested on: NCI-H23 lung
UO-31 renal = tested on: UO-31 renal
COLO 205 colon = tested on: COLO 205 colon
KM12 colon = tested on: KM12 colon
BT-549 breast = tested on: BT-549 breast
RPMI-8226 leukemia = tested on: RPMI-8226 leukemia
SF-268 CNS = tested on: SF-268 CNS
T-47D breast = tested on: T-47D breast
OVCAR-8 ovarian = tested on: OVCAR-8 ovarian
IGROV1 ovarian = tested on: IGROV1 ovarian
SK-MEL-5 melanoma = tested on: SK-MEL-5 melanoma
HS 578T breast = tested on: HS 578T breast
NCI/ADR-RES ovarian = tested on: NCI/ADR-RES ovarian
OVCAR-5 ovarian = tested on: OVCAR-5 ovarian
SNB-75 CNS = tested on: SNB-75 CNS
MOLT-4 leukemia = tested on: MOLT-4 leukemia
A549 NSCLC = tested on: A549 NSCLC
U251 CNS = tested on: U251 CNS
NCI-H522 lung = tested on: NCI-H522 lung
SN12C renal = tested on: SN12C renal

SMILES: O=S(=O)(c1ccccc1)n1c(C(O)c2ccccc2)cc2ccccc21 (stereo not given)
- TGI (786-0 renal): 29.6 µM
- TGI (MDA-MB-435): 36.4 µM
- TGI (K-562 leukemia): > 100 µM
- TGI (TK-10 renal): 33.6 µM
- TGI (SK-OV-3 ovarian): 29 µM
- TGI (SF-295 CNS): 32.2 µM
- TGI (MDA-MB-231 breast): 49.2 µM
- TGI (ACHN renal): 29.1 µM
- TGI (HCC-2998 colon): 33.2 µM
- TGI (DU-145 prostate): > 100 µM
- TGI (MCF7 breast): 40.9 µM
- TGI (HOP-62 NSCLC): 31.8 µM
- TGI (A498 renal): 26.5 µM
- TGI (CAKI-1 renal): 47.3 µM
- TGI (HCT-15 colon): 61.3 µM
- TGI (PC-3 prostate): 30.2 µM
- TGI (OVCAR-3 ovarian): 30.3 µM
- TGI (NCI-H226 lung): 29.3 µM
- TGI (HOP-92 NSCLC): 38.4 µM
- TGI (RXF 393 renal): 30.5 µM
- TGI (M14 melanoma): 28.1 µM
- TGI (HCT-116 colon): 34.6 µM
- TGI (LOX IMVI melanoma): > 100 µM
- TGI (OVCAR-4 ovarian): 50.2 µM
- TGI (HT29 colon): 26.2 µM
- TGI (EKVX NSCLC): 41.6 µM
- TGI (SNB-19 CNS): 26.7 µM
- TGI (NCI-H460 lung): > 100 µM
- TGI (CCRF-CEM leukemia): 28.9 µM
- TGI (SK-MEL-2 melanoma): 31.3 µM
- TGI (SF-539 CNS): 30.8 µM
- TGI (SW-620 colon): 64.7 µM
- TGI (SK-MEL-28 melanoma): 39.9 µM
- TGI (MALME-3M melanoma): 39.2 µM
- TGI (HL-60(TB) leukemia): 34.9 µM
- TGI (UACC-257 melanoma): 34.4 µM
- TGI (UACC-62 melanoma): 28 µM
- TGI (NCI-H23 lung): 41.9 µM
- TGI (UO-31 renal): 24 µM
- TGI (COLO 205 colon): 45.5 µM
- TGI (KM12 colon): 30.3 µM
- TGI (BT-549 breast): 32.2 µM
- TGI (RPMI-8226 leukemia): > 100 µM
- TGI (SF-268 CNS): 38.5 µM
- TGI (T-47D breast): 65.8 µM
- TGI (OVCAR-8 ovarian): 49.9 µM
- TGI (IGROV1 ovarian): 35.4 µM
- TGI (SK-MEL-5 melanoma): 32.4 µM
- TGI (HS 578T breast): 27.9 µM
- TGI (NCI/ADR-RES ovarian): 30.3 µM
- TGI (OVCAR-5 ovarian): 30.9 µM
- TGI (SNB-75 CNS): 35.7 µM
- TGI (MOLT-4 leukemia): > 100 µM
- TGI (A549 NSCLC): 35.3 µM
- TGI (U251 CNS): 43.7 µM

SMILES: COc1cc2c3c(n(CCCNC4=NCCS4)c(=O)c2cc1OC)-c1cc2c(cc1C3=O)OCO2
- GI50 (786-0 renal): < 0.01 µM
- TGI (786-0 renal): 0.0371 µM
- TGI (MDA-MB-435): 1.83 µM
- GI50 (K-562 leukemia): < 0.01 µM
- TGI (K-562 leukemia): 0.631 µM
- GI50 (TK-10 renal): 4.59 µM
- TGI (TK-10 renal): 10.6 µM
- TGI (SK-OV-3 ovarian): 3.18 µM
- GI50 (SF-295 CNS): < 0.01 µM
- TGI (SF-295 CNS): 1.42 µM
- GI50 (MDA-MB-231 breast): 0.465 µM
- TGI (MDA-MB-231 breast): 1.02 µM
- GI50 (ACHN renal): < 0.01 µM
- TGI (ACHN renal): 0.135 µM
- GI50 (HCC-2998 colon): < 0.01 µM
- GI50 (DU-145 prostate): < 0.01 µM
- TGI (DU-145 prostate): 1.31 µM
- GI50 (MCF7 breast): < 0.01 µM
- GI50 (HOP-62 NSCLC): < 0.01 µM
- GI50 (NCI-H522 lung): 0.174 µM
- TGI (NCI-H522 lung): > 56.2 µM
- GI50 (A498 renal): 1.52 µM
- TGI (A498 renal): 7.68 µM
- GI50 (CAKI-1 renal): < 0.01 µM
- TGI (CAKI-1 renal): 0.749 µM
- GI50 (HCT-15 colon): 0.823 µM
- TGI (HCT-15 colon): 3.67 µM
- GI50 (PC-3 prostate): 0.722 µM
- TGI (PC-3 prostate): 3.51 µM
- GI50 (OVCAR-3 ovarian): 0.203 µM
- TGI (OVCAR-3 ovarian): 2.09 µM
- GI50 (NCI-H226 lung): 0.0456 µM
- TGI (NCI-H226 lung): 0.913 µM
- TGI (HOP-92 NSCLC): 1.95 µM
- GI50 (M14 melanoma): < 0.01 µM
- TGI (M14 melanoma): 0.201 µM
- GI50 (HCT-116 colon): < 0.01 µM
- TGI (HCT-116 colon): 0.127 µM
- GI50 (LOX IMVI melanoma): < 0.01 µM
- TGI (LOX IMVI melanoma): 0.232 µM
- GI50 (OVCAR-4 ovarian): 1.82 µM
- TGI (OVCAR-4 ovarian): 6.1 µM
- GI50 (HT29 colon): < 0.0347 µM
- TGI (HT29 colon): 0.756 µM
- GI50 (EKVX NSCLC): 1.79 µM
- TGI (EKVX NSCLC): 8.8 µM
- GI50 (SNB-19 CNS): 1.03 µM
- TGI (SNB-19 CNS): > 100 µM
- GI50 (CCRF-CEM leukemia): < 0.01 µM
- GI50 (SK-MEL-2 melanoma): 9.98 µM
- TGI (SK-MEL-2 melanoma): > 80.6 µM
- GI50 (SF-539 CNS): < 0.0122 µM
- TGI (SF-539 CNS): 0.283 µM
- GI50 (SK-MEL-28 melanoma): 1.12 µM
- TGI (SK-MEL-28 melanoma): 3.21 µM
- GI50 (MALME-3M melanoma): 1.44 µM
- TGI (MALME-3M melanoma): 5.41 µM
- GI50 (HL-60(TB) leukemia): 0.142 µM
- GI50 (UACC-257 melanoma): 1.21 µM
- TGI (UACC-257 melanoma): 5.67 µM
- GI50 (UACC-62 melanoma): 0.0559 µM
- TGI (UACC-62 melanoma): 1.66 µM
- GI50 (NCI-H23 lung): < 0.0123 µM
- TGI (NCI-H23 lung): 0.128 µM
- GI50 (UO-31 renal): 0.147 µM
- TGI (UO-31 renal): > 100 µM
- TGI (COLO 205 colon): 4.09 µM
- GI50 (KM12 colon): 1.11 µM
- TGI (KM12 colon): 3.11 µM
- GI50 (BT-549 breast): 1.73 µM
- TGI (BT-549 breast): 9.3 µM
- GI50 (RPMI-8226 leukemia): < 0.0145 µM
- TGI (RPMI-8226 leukemia): 0.296 µM
- GI50 (SF-268 CNS): 0.188 µM
- TGI (SF-268 CNS): 5.19 µM
- TGI (T-47D breast): 2.7 µM
- TGI (OVCAR-8 ovarian): 2.11 µM
- GI50 (IGROV1 ovarian): 0.197 µM
- TGI (IGROV1 ovarian): > 100 µM
- GI50 (SK-MEL-5 melanoma): 0.236 µM
- TGI (SK-MEL-5 melanoma): 2.23 µM
- GI50 (HS 578T breast): 1.4 µM
- TGI (HS 578T breast): 3.85 µM
- GI50 (NCI/ADR-RES ovarian): < 0.0183 µM
- TGI (NCI/ADR-RES ovarian): 0.319 µM
- GI50 (OVCAR-5 ovarian): 0.668 µM
- TGI (OVCAR-5 ovarian): 2.08 µM
- TGI (SNB-75 CNS): 1.44 µM
- GI50 (MOLT-4 leukemia): < 0.01 µM
- GI50 (A549 NSCLC): < 0.01 µM
- TGI (A549 NSCLC): 1.33 µM
- GI50 (SN12C renal): < 0.0255 µM
- TGI (SN12C renal): 0.408 µM
- GI50 (U251 CNS): < 0.01 µM
- TGI (U251 CNS): 0.197 µM
